Test results: PubChem BioAssay AID248 (DTP/NCI, 2004)
Where “and” joins values, the source holds several entries; their conditions need not be identical. Identical values can stand only once. Toxic doses and inconclusive results are not listed. No stated cut-off is given here; in the data, active means T/C of 150% or more; inactive means T/C below 125%.

Test system: L1210 leukemia ip in BDF1 mice, survival T/C
Experiment: NCI In Vivo Anticancer Drug Screen. Data for tumor model L1210 Leukemia (intraperitoneal) in B6D2F1 (BDF1) mice
Settings: higher = longer survival
Method in brief: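 In this screen, tumor-bearing mice given compound are compared to those given vehicle, and their survival values are reported as a treated-to-control quotient.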

[1] = endpoint: mean survival time, dose: 100.0 mg/kg/injection, schedule: Q04DX003 (ip), vehicle: saline with Tween-80
[2] = endpoint: mean survival time, dose: 200.0 mg/kg/injection, schedule: Q04DX003 (ip), vehicle: saline with Tween-80
[3] = endpoint: mean survival time, dose: 400.0 mg/kg/injection, schedule: Q04DX003 (ip), vehicle: saline with Tween-80

Measured: T/C

CS(=O)(=O)OCCCCOS(C)(=O)=O
inactive: endpoint: mean survival time, dose: 1.5 mg/kg/injection, schedule: Q04DX002 (ip), vehicle: saline with Tween-80 95 % of control and 106 % of control | endpoint: mean survival time, dose: 1.7 mg/kg/injection, schedule: Q01DX009 (ip), vehicle: saline with Tween-80 96 % of control and 108 % of control | endpoint: mean survival time, dose: 2.9 mg/kg/injection, schedule: Q04DX002 (ip), vehicle: saline with Tween-80 100 % of control and 107 % of control | endpoint: mean survival time, dose: 3.3 mg/kg/injection, schedule: Q01DX009 (ip), vehicle: saline with Tween-80 96 % of control and 105 % of control | endpoint: mean survival time, dose: 3.75 mg/kg/injection, schedule: Q01DX001 (ip), vehicle: carboxymethylcellulose (CMC) 103 % of control | endpoint: mean survival time, dose: 5.8 mg/kg/injection, schedule: Q04DX002 (ip), vehicle: saline with Tween-80 98 % of control and 102 % of control | endpoint: mean survival time, dose: 6.25 mg/kg/injection, schedule: Q01DX010 (ip), vehicle: saline 108 % of control and 118 % of control | endpoint: mean survival time, dose: 6.5 mg/kg/injection, schedule: Q01DX009 (ip), vehicle: saline with Tween-80 99 % of control and 105 % of control | endpoint: mean survival time, dose: 7.5 mg/kg/injection, schedule: Q01DX001 (ip), vehicle: carboxymethylcellulose (CMC) 112 % of control | endpoint: mean survival time, dose: 9.5 mg/kg/injection, schedule: Q02DX010 (ip), vehicle: carboxymethylcellulose (CMC) 111 % of control | endpoint: mean survival time, dose: 10.0 mg/kg/injection, schedule: Q01DX Z (ip), vehicle: carboxymethylcellulose (CMC) 104 % of control | endpoint: mean survival time, dose: 10.0 mg/kg/injection, schedule: Q02DX010 (ip), vehicle: carboxymethylcellulose (CMC) 97 % of control | endpoint: mean survival time, dose: 10.0 mg/kg/injection, schedule: Q02DX010 (ip), vehicle: other 112 % of control | endpoint: mean survival time, dose: 11.5 mg/kg/injection, schedule: Q04DX002 (ip), vehicle: saline with Tween-80 98 % of control and 109 % of control | endpoint: mean survival time, dose: 12.5 mg/kg/injection, schedule: Q01DX009 (ip), vehicle: saline 97 % of control and 104 % of control and 88 % of control | endpoint: mean survival time, dose: 12.5 mg/kg/injection, schedule: Q01DX010 (ip), vehicle: saline 116 % of control and 118 % of control | endpoint: mean survival time, dose: 12.5 mg/kg/injection, schedule: Q01DX Z (ip), vehicle: carboxymethylcellulose (CMC) 93 % of control and 102 % of control | endpoint: mean survival time, dose: 13.0 mg/kg/injection, schedule: Q01DX009 (ip), vehicle: saline with Tween-80 99 % of control and 101 % of control | endpoint: mean survival time, dose: 14.0 mg/kg/injection, schedule: Q02DX010 (ip), vehicle: carboxymethylcellulose (CMC) 96 % of control | endpoint: mean survival time, dose: 15.0 mg/kg/injection, schedule: Q01DX001 (ip), vehicle: carboxymethylcellulose (CMC) 101 % of control | endpoint: mean survival time, dose: 15.0 mg/kg/injection, schedule: Q02DX010 (ip), vehicle: carboxymethylcellulose (CMC) 98 % of control | endpoint: mean survival time, dose: 15.0 mg/kg/injection, schedule: Q02DX010 (ip), vehicle: other 104 % of control | endpoint: mean survival time, dose: 20.0 mg/kg/injection, schedule: Q01DX Z (ip), vehicle: carboxymethylcellulose (CMC) 103 % of control | endpoint: mean survival time, dose: 22.0 mg/kg/injection, schedule: Q02DX010 (ip), vehicle: carboxymethylcellulose (CMC) 103 % of control and 113 % of control | endpoint: mean survival time, dose: 22.0 mg/kg/injection, schedule: Q02DX010 (ip), vehicle: other 106 % of control | endpoint: mean survival time, dose: 23.0 mg/kg/injection, schedule: Q04DX002 (ip), vehicle: saline with Tween-80 98 % of control and 100 % of control | endpoint: mean survival time, dose: 25.0 mg/kg/injection, schedule: Q01DX009 (ip), vehicle: saline with Tween-80 101 % of control and 115 % of control | endpoint: mean survival time, dose: 25.0 mg/kg/injection, schedule: Q01DX009 (ip), vehicle: saline 96 % of control (2×) and 111 % of control | endpoint: mean survival time, dose: 25.0 mg/kg/injection, schedule: Q01DX Z (ip), vehicle: carboxymethylcellulose (CMC) 102 % of control and 105 % of control | endpoint: mean survival time, dose: 27.0 mg/kg/injection, schedule: Q01DX001 (ip), vehicle: carboxymethylcellulose (CMC) 96 % of control | endpoint: mean survival time, dose: 30.0 mg/kg/injection, schedule: Q01DX001 (ip), vehicle: carboxymethylcellulose (CMC) 106 % of control | endpoint: mean survival time, dose: 33.0 mg/kg/injection, schedule: Q02DX010 (ip), vehicle: other 112 % of control | endpoint: mean survival time, dose: 40.0 mg/kg/injection, schedule: Q01DX Z (ip), vehicle: carboxymethylcellulose (CMC) 110 % of control | endpoint: mean survival time, dose: 40.0 mg/kg/injection, schedule: Q01DX Z (oral), vehicle: saline 94 % of control | endpoint: mean survival time, dose: 41.0 mg/kg/injection, schedule: Q01DX001 (ip), vehicle: carboxymethylcellulose (CMC) 103 % of control | endpoint: mean survival time, dose: 46.0 mg/kg/injection, schedule: Q04DX002 (ip), vehicle: saline with Tween-80 104 % of control and 107 % of control | endpoint: mean survival time, dose: 49.0 mg/kg/injection, schedule: Q01DX009 (ip), vehicle: saline with Tween-80 103 % of control and 121 % of control | endpoint: mean survival time, dose: 50.0 mg/kg/injection, schedule: Q01DX009 (ip), vehicle: saline 98 % of control and 109 % of control and 120 % of control | endpoint: mean survival time, dose: 50.0 mg/kg/injection, schedule: Q01DX010 (ip), vehicle: saline 111 % of control and 88 % of control | endpoint: mean survival time, dose: 50.0 mg/kg/injection, schedule: Q01DX Z (ip), vehicle: carboxymethylcellulose (CMC) 103 % of control | endpoint: mean survival time, dose: 50.0 mg/kg/injection, schedule: Q02DX010 (ip), vehicle: carboxymethylcellulose (CMC) 101 % of control and 107 % of control | endpoint: mean survival time, dose: 50.0 mg/kg/injection, schedule: Q02DX010 (ip), vehicle: other 115 % of control | endpoint: mean survival time, dose: 60.0 mg/kg/injection, schedule: Q01DX001 (ip), vehicle: carboxymethylcellulose (CMC) 110 % of control | endpoint: mean survival time, dose: 61.0 mg/kg/injection, schedule: Q01DX001 (ip), vehicle: carboxymethylcellulose (CMC) 98 % of control | endpoint: mean survival time, dose: 75.0 mg/kg/injection, schedule: Q02DX010 (ip), vehicle: carboxymethylcellulose (CMC) 89 % of control | endpoint: mean survival time, dose: 80.0 mg/kg/injection, schedule: Q01DX Z (oral), vehicle: saline 105 % of control | endpoint: mean survival time, dose: 100.0 mg/kg/injection, schedule: Q01DX009 (ip), vehicle: saline 88 % of control | endpoint: mean survival time, dose: 100.0 mg/kg/injection, schedule: Q01DX Z (ip), vehicle: carboxymethylcellulose (CMC) 93 % of control | [1] 101 % of control | endpoint: mean survival time, dose: 120.0 mg/kg/injection, schedule: Q01DX001 (ip), vehicle: carboxymethylcellulose (CMC) 100 % of control | endpoint: mean survival time, dose: 160.0 mg/kg/injection, schedule: Q01DX Z (oral), vehicle: saline 108 % of control | [2] 104 % of control | [3] 104 % of control | endpoint: median survival time, dose: 10.0 mg/kg/injection, schedule: Q01DX009 (ip), vehicle: saline 105 % of control | endpoint: median survival time, dose: 12.5 mg/kg/injection, schedule: Q01DX009 (ip), vehicle: saline 95 % of control and 112 % of control | endpoint: median survival time, dose: 20.0 mg/kg/injection, schedule: Q01DX009 (ip), vehicle: saline 100 % of control | endpoint: median survival time, dose: 25.0 mg/kg/injection, schedule: Q01DX009 (ip), vehicle: saline 110 % of control and 112 % of control | endpoint: median survival time, dose: 40.0 mg/kg/injection, schedule: Q01DX009 (ip), vehicle: saline 100 % of control | endpoint: median survival time, dose: 50.0 mg/kg/injection, schedule: Q01DX009 (ip), vehicle: saline 100 % of control and 112 % of control | endpoint: median survival time, dose: 80.0 mg/kg/injection, schedule: Q01DX009 (ip), vehicle: saline 110 % of control | endpoint: median survival time, dose: 100.0 mg/kg/injection, schedule: Q01DX009 (ip), vehicle: saline 100 % of control | endpoint: median survival time, dose: 160.0 mg/kg/injection, schedule: Q01DX009 (ip), vehicle: saline 100 % of control

O=C(Nc1ccccc1C(=O)N/N=C/c1ccccc1Cl)c1ccccc1Cl
inactive: endpoint: mean survival time, dose: 100.0 mg/kg/injection, schedule: Q01DX009 (ip), vehicle: Klucel (hydroxypropylcellulose) (HPC) 90 % of control | endpoint: mean survival time, dose: 200.0 mg/kg/injection, schedule: Q01DX009 (ip), vehicle: Klucel (hydroxypropylcellulose) (HPC) 103 % of control | endpoint: mean survival time, dose: 400.0 mg/kg/injection, schedule: Q01DX009 (ip), vehicle: Klucel (hydroxypropylcellulose) (HPC) 86 % of control

O=[N+]([O-])C1(CO)COC(c2ccccc2)OC1 (centres undefined)
inactive: endpoint: mean survival time, dose: 100.0 mg/kg/injection, schedule: Q01DX009 (ip), vehicle: water 91 % of control | [1] 111 % of control | endpoint: mean survival time, dose: 200.0 mg/kg/injection, schedule: Q01DX009 (ip), vehicle: water 98 % of control | [2] 108 % of control | endpoint: mean survival time, dose: 400.0 mg/kg/injection, schedule: Q01DX009 (ip), vehicle: water 92 % of control | [3] 95 % of control

CN(Cc1ccc(Cl)cc1)C(=S)Nc1ccccc1
inactive: endpoint: mean survival time, dose: 100.0 mg/kg/injection, schedule: Q04DX002 (ip), vehicle: Klucel (hydroxypropylcellulose) (HPC) 114 % of control | endpoint: mean survival time, dose: 200.0 mg/kg/injection, schedule: Q04DX002 (ip), vehicle: Klucel (hydroxypropylcellulose) (HPC) 92 % of control | endpoint: mean survival time, dose: 400.0 mg/kg/injection, schedule: Q04DX002 (ip), vehicle: Klucel (hydroxypropylcellulose) (HPC) 96 % of control
